Assay results as given in patent publication US20230181543A1, “TREATMENT OF CARM1-OVEREXPRESSING AND/OR ARID1A MUTANT CANCERS WITH IRE-1/XBP-1 INHIBITORS” (The Wistar Institute of Anatomy and Biology, priority 2020, published 2023).
“Also recorded” adds a separate entry of the source.

What was measured:
[1] = system: CARM1-high tumors; assay: Orthotopic CARM1-high and CARM1-low PDX and A1847 xenograft mouse models; type: in vivo, mice; settings: CARM1-high vs CARM1-low PDX; wild-type vs CARM1 knockout A1847 xenograft
Text: (FIG. 18A) Hematoxylin and eosin (HE) staining, and immunohistochemical staining with anti-CARM1 antibody in CARM1-low and CARM1-high PDX. (FIG. 18B) Confirmation of CARM1 expression levels in CARM1-low and -high PDXs by western blotting. A1847 and OVCAR3 cell lysates were used as positive control for CARM1-high and CARM1-low expression, respectively. (FIGS. 18C-D) Schematic of experimental design for PDX mouse model was shown. Mice with indicated orthotopic CARM1-high and CARM1-low PDXs were randomized into two groups and treated with vehicle control or B-I09. Tumor weight was measured as a representation for tumor burden at the end of the treatment. (FIGS. 18E-F) Schematic of experimental design for orthotopic injection A1847 xenograft was shown. Mice with indicated orthotopic injection of wild-type or CARM1 knockout A1847 cells were randomized into two groups and treated with vehicle control or B-I09. Tumor weight was measured as a representation for tumor burden at the end of the treatment. (FIG. 18G) Kaplan-Meier survival curves for indicated xenograft groups. P value was calculated by log rank test. (FIG. 18H) Immunohistochemistry for apoptotic marker cleaved caspase 3 and proliferation marker Ki67, histological scores (H-score) were calculated for three separate fields from five tumors from five individual mice from each of the indicated groups.

[2] = system: ARID1A mutant tumor; assay: ARID1A mutant tumor formation under B-I09; type: in vivo; settings: FIG. 39, 40
[3] = B-I09 treatment with CD8 depletion; type: in vivo; settings: FIG. 44
[4] = system: hematological malignancies; settings: cited from earlier work
[5] = system: UPK10 cells; assay: Orthotopic UPK10 xenograft, B-I09 with PD-1 immune therapy; type: in vivo, B6 Mice; settings: B-I09 50 mg per kg, 5 weekdays per week i.p., with PD-1 10 mg per kg twice per week
Procedure: (FIG. 19A) Western blotting of CARM1 and loading control […]-actin in UPK10, […] and OVCAR3 cells. (FIG. 19B) Schematic of experimental design for orthotopic injection UPK10 xenograft was shown. B6 Mice with indicated orthotopic injection of UPK10 cells were randomized into four different treatment groups and treated with control vehicle, B-[…] (50 mg per kg, 5 weekdays per week by i.p.), PD-1 (10 mg per kg, twice per week) or a combination. (FIG. 19C) Tumor weight was measured as a representation for tumor burden at the end of the treatment. coefficient of drug interaction (CDI) was calculated. (FIG. 19D) Tumor infiltrated lymphocytes (TILs) was analyzed by flow cytometry. The percentage of CD4^+ T cell, CD8^+ T cell, B cell in […] cell and macrophage were shown.

[6] = system: XBP-1; settings: B-I09 20 μM, 48 h (FIG. 3A)
Text: (FIG. 3B) Dose response curve of B-I09 in wild-type and CARM1 knockout A1847 cells. (FIG. 3C) The expression of CARM1 in different HGSOC cell lines. (FIG. 3D) The IC50 of B-I09 in CARM1-low and high HGSOC cells.
Next, the inventors investigated whether the activated IRE-1-XBP-1 pathway is required for the survival of CARM1-high parental cells. […] To investigate whether the IRE-1-XBP-1 inhibition suppresses CARM1-high cells through inducing cell death, western blotting of apoptotic markers was performed. […] Therefore, to investigate whether lipid biosynthesis affects the selectivity of CARM1-high cells to inhibit the XBP-1 pathway, cells are treated with B-I09 to inhibit the XBP-1 pathway and rescued with control BSA or oleic acid (OA) (FIG. 4B), which is the upstream product for lipid biosynthesis (Yao et al., 2017).

[7] = system: Arid1a flox/flox;(Gt)Rosa26Pik3ca*H1047R OCCC tumors; assay: Genetic OCCC mouse model (conditional inactivation of Arid1a, activation of Pik3ca)
[8] = system: A1847 cells; assay: Dose response of B-I09 in wild-type and CARM1 knockout A1847 cells; type: cell-based; settings: wild-type vs CARM1 knockout A1847 cells (FIG. 3B)
[9] = system: A1847 cells with or without CARM1 knockout; assay: Western blotting of apoptotic markers (cleaved PARP, cleaved lamin A); type: cell-based; settings: CARM1-high parental vs CARM1 knockout cells, B-I09 treatment
Text: (§1) FIGS. 4A-C. […] (FIG. 4A) Western blotting of apoptotic markers in A1847 cells with or without CARM1 knockout treated with or without B-I09. (FIGS. 4B-C) Schematics (FIG. 4B) and dose response curves (FIG. 4C) of A1847 cells with or without CARM1 knockout treated with B-I09 and rescued with BSA or oleic acid (OA).
FIGS. 15A-F. IRE-1a-XBP-1 pathway is required for CARM1-expressing OvCa. (FIG. 15A) Colony formation assays of wildtype and CARM1 knockout A 1847 and PEO4 cells treated with IRE-1α inhibitor B-I09 or 4μ8c. […] (FIG. 15C) Western blotting of apoptotic markers cleaved PARP and cleaved Lamin A and loading control β-actin. […] (FIG. 15D) The CARM1 levels in a panel of High Grade Serous Ovarian Cancer (HGSOC) cell lines were examined by western blotting. CARM1 is highly expressed in PEO4, OSAHO and A1847 cell lines. (FIG. 15E) Survival curves of colony formation assays of the panel of HGSOC cell lines treated with B-I09. (FIG. 15F) Comparison of IC50 of CARM1-high and CARM1-low HGSOC cell lines under treatment of B-I09.

[10] = system: ARID1A-mutant OCCC PDX; assay: ARID1A-mutant OCCC PDX mice treated with B-I09; type: in vivo; settings: ARID1A-mutant OCCC PDX mice (FIG. 45)
[11] = target: EZH2 compared to EZH1 (Homo sapiens, UniProt Q15910); settings: cited from earlier work
Chain of EZH2 compared to EZH1 (Q15910 whole entry): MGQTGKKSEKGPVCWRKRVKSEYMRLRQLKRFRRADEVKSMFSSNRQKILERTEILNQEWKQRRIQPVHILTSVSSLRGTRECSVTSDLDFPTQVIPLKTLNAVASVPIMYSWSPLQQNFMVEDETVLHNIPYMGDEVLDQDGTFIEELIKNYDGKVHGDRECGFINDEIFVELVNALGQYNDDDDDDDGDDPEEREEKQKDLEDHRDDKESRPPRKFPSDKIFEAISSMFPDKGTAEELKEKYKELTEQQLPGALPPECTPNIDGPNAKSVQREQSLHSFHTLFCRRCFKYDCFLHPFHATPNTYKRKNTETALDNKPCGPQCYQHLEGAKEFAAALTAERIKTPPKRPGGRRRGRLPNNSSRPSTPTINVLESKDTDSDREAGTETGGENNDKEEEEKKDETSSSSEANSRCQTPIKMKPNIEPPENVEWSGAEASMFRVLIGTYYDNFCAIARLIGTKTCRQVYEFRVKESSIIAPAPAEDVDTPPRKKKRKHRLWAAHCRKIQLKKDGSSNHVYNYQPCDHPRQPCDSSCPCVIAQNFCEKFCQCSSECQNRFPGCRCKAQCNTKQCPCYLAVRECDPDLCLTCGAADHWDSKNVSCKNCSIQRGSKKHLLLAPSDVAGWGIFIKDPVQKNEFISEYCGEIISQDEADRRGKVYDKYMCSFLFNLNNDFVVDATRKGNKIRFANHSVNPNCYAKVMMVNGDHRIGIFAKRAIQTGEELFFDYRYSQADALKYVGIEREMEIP
Chain of EZH2 compared to EZH1 (O75530 whole entry partner): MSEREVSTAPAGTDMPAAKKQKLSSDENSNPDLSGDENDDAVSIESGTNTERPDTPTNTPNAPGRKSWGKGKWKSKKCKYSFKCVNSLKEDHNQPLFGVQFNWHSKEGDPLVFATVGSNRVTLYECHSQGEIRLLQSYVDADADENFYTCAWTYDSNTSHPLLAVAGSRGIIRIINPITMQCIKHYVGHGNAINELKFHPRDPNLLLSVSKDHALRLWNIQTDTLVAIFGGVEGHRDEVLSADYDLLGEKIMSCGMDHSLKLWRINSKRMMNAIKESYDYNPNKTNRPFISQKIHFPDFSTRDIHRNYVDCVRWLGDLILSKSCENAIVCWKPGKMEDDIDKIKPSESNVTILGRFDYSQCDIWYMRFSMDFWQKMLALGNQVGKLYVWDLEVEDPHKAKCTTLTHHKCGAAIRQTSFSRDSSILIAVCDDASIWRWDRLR
Chain of EZH2 compared to EZH1 (Q15022 whole entry partner): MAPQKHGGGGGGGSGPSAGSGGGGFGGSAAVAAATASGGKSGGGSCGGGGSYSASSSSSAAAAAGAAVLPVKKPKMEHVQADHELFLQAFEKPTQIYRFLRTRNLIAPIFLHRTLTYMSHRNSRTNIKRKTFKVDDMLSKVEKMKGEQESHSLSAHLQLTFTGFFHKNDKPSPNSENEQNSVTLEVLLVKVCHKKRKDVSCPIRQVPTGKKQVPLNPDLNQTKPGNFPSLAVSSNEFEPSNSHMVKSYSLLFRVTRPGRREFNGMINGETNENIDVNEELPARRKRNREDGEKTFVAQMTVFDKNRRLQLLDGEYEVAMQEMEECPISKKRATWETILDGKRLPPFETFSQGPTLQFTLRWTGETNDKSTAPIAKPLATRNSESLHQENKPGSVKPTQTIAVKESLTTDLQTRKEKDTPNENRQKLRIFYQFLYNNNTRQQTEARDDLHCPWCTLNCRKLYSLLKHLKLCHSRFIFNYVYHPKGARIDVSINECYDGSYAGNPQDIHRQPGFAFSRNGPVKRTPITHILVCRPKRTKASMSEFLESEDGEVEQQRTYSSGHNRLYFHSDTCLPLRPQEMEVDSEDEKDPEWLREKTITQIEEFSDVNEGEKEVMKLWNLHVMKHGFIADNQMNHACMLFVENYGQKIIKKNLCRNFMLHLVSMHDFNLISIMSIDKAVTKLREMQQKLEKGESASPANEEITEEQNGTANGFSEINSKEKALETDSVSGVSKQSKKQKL
Chain of EZH2 compared to EZH1 (Q09028 whole entry partner): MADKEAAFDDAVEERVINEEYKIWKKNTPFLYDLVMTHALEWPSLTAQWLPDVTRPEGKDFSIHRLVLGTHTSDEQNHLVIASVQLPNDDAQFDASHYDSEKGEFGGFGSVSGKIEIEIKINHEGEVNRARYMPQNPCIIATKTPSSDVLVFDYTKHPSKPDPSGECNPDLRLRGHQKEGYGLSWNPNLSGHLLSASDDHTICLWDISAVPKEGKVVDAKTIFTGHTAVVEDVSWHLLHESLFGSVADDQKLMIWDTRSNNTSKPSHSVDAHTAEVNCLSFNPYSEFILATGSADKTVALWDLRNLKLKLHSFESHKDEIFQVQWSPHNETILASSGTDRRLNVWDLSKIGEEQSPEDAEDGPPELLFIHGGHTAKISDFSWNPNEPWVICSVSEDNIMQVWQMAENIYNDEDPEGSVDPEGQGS

[12] = system: RMG1 cells; assay: Cisplatin and B-I09 combination in RMG1 wild-type and ARID1A knock-out cells; type: cell-based; settings: RMG1 wild-type vs RMG1 ARID1A knock-out cells (FIG. 11); preliminary
Text: FIG. 11. […] IC50 of cisplatin in RMG1 wild-type compared to RMG1 ARID1A knock-out cells in combination with B-I09. Data from 3 replicates.
Resistance to cisplatin has been associated with an increase in ER stress-mediated cellular survival mechanisms in ovarian cancer (Avril et al., 2017; Lei et al., 2015; Xu et al., 2015). […] The inventors hypothesize that ER stress inhibition is synergistic with platinum-based chemotherapy in ARID1A-mutated OCCCs. To test this hypothesis, the inventors will treat ARID1A wild-type, ARID1A CRISPR-Cas9 knock-out, and ARID/A-mutant or wild-type OCCC cells with increasing concentrations of cisplatin or carboplatin. ER stress response induction will be analyzed by western blot and RT-qPCR analyzing the expression of ER stress response proteins such as IRE-1, XBP-1, PERK, ATF6 and BiP. They expect that platinum-based therapy-induces enhanced ER stress responses in ARID1A mutant/knock-out cells. ER stress response induction may sensitize them to treatment combination of platinum-based therapies and B-I09. […] The inventors will expand this analysis into a panel of ARID1A wild-type (such as RMG1, OVCA429 and KK) and mutant (such as TOV21G, OVTOKO, and OVISE) OCCC cell lines to further establish the efficacy of combination treatment of platinum-based therapy and B-I09. […]

[13] = system: A1847 cells with or without CARM1 knockout; assay: Oleic acid rescue of B-I09-treated cells; type: cell-based; settings: cells treated with B-I09, rescued with BSA or oleic acid (FIG. 4C); preliminary
Text: as §1

SMILES: O=c1oc2c(C3OCCCO3)c(O)ccc2c2c1CNCC2 [B-I09]
- sensitivity of tumors (tumor weight, survival) to B-I09 [1]: CARM1-high tumors are sensitive to IRE-1α-XBP-1 inhibition
- ARID1A mutant tumor formation [2]: selectively suppresses ARID1A mutant tumor formation
- effect of CD8 depletion on B-I09 treatment [3]: CD8 depletion does not affect B-I09 treatment
- efficacy in hematological malignancies [4]: has been effective in treating hematological malignancies
- drug interaction on tumor weight (coefficient of drug interaction) [5]: synergizes with PD-1 immune therapy
- activation of XBP-1 / expression of active XBP-1s [6]: inhibits the activation of XBP-1; also recorded: decreasing the expression of active XBP-1s
- survival (Kaplan-Meier) ([7]; 50 mg/Kg B-I09, tumor bearing mice): enhances mouse survival
- tumor growth / progression (tumor weight) ([7]; 50 mg/Kg B-I09 for 3 weeks (5 days on/2 off)): reduces OCCC tumor growth in vivo; also recorded: suppresses tumor progression
- sensitivity to B-I09, dose response curve [8]: wild-type cells are significantly more sensitive to B-I09 compared with knockout cells
- induction of apoptosis (cleaved PARP, cleaved lamin A) [9]: specifically induces apoptosis in CARM1-high cells; also recorded: specifically induced apoptosis in wildtype CARM1-high cells; also recorded: selectively induced apoptosis in CARM1-high but not CARM1-low or CARM1 knockout HGSOC cells
- tumor growth [10]: suppresses tumor growth

SMILES: Cc1cc(C)c(CNC(=O)c2cc(-c3ccc(CN4CCOCC4)cc3)cc3c2cnn3C2CCCC2)c(=O)[nH]1 [EPZ005687]
- selectivity for EZH2 over EZH1 [11]: 50 fold

SMILES: N.N.[Cl][Pt][Cl] [cisplatin]
- IC50 of cisplatin in combination with B-I09 [12]: reduces the IC50 of cisplatin more effectively in RMG1 CRISPR/Cas9 KO cells compared to their wild-type parental control; also recorded: Loss of ARID1A promotes sensitivity to cisplatin and B-I09 combination

SMILES: CCCCCCCC/C=C\CCCCCCCC(=O)O [oleic acid]
- rescue from B-I09 inhibition of XBP-1 [13]: can rescue A1847 wild-type cells from the inhibition of XBP-1 but has no effect on CARM1 knockout cells
